# From EP2657234B1, “OPTICALLY-ACTIVE DIAZABICYCLOOCTANE DERIVATIVE AND METHOD FOR MANUFACTURING SAME” (Meiji Seika Pharma Co., Ltd., priority 2010, dated 2012)
# Structures can show the parent of a compound that is named as a salt.
# How the values were obtained:
# [1] = test system: P. aeruginosa PAO1 variant, which constitutively expresses AmpC; experiment: Combinatorial effect: MIC of piperacillin (PIPC) by agar plate dilution (CLSI) with test compound; type: cell-based; settings: for MIC: Pseudomonas aeruginosa, PAO1; for effect of the compound in combination with an antibiotic: result in words
# Procedure: The biological activity of the above-mentioned compounds of formulae (H) and (s) can be measured as follows. Specifically, an enzyme inhibitory activity (IC50 value) against AmpC enzyme which is a class C β-lactamase was determined using nitrocephin as a substrate to check whether or not the compounds had the inhibitory activity and compare the activities of them. Further, using constitutive AmpC producing Pseudomonas aeruginosa, a combined antimicrobial activity (MIC) was measured when using Piperacillin (PIPC) as an antibiotic and the compound of formula (H) or (s) in combination to check whether or not the antimicrobial activity of PIPC could be restored.
# The combinatorial effect of the test compound with a β-lactam agent against bacteria was evaluated using AmpC constitutive expression strain selected from P. aeruginosa PAO1 through agent exposure. Using piperacillin (PIPC, Sigma-Aldrich) as a β-lactam agent, measurement was conducted by agar plate dilution process in which minimal inhibitory concentration (MIC) of PIPC is based on Clinical and Laboratory Standards Institute (CLSI process). That is, an agara plate containing 4 µg/mL (final concentration) of test compound and PIPC at each concentration in Mueller-Hinton agar (Becton, Dickinson and Company) was made, and bacteria cultured overnight in cation-adjusted Muller-Hinton broth (Becton, Dickinson and Company) were adjusted in the same medium so as to have 10^4 CFU/spot and inoculated on a plate containing an agent. This plate containing an agent was cultured overnight at 35 °C, and the minimum agent concentration in which no growth of bacteria is observed was determined to be MIC.
# AmpC β-lactamase = molecular target: T1, AmpC β-lactamase (Pseudomonas aeruginosa, UniProt P24735); type: biochemical; settings: result in words
# T1 construct: a DNA for encoding an AmpC β-lactamase domain excluding a signal peptide was amplified with PCR; made in house; host or cells: E. coli BL21
# T1 sequence (P24735 27-397): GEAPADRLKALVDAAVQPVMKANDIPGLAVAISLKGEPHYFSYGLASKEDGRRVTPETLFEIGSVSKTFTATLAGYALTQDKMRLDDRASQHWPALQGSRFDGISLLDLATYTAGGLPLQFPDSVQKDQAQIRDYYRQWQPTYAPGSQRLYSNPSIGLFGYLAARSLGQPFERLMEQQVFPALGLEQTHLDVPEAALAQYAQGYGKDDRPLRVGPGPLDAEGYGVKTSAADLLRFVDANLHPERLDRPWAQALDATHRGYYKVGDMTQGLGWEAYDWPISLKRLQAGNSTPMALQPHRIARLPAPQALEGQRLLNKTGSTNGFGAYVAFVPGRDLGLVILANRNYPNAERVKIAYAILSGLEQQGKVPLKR
Structure (SMILES),MIC [1] [µg/mL],effect of the compound in combination with an antibiotic [1],β-lactamase enzyme inhibitory activity (AmpC β-lactamase)
"NC(=O)C1CCC2CN1C(=O)N2OS(=O)(=O)O [Example 23, (2S,5R)-1,6-Diazabicyclo[3.2.1]octane-2-carboxamide, 7-oxo-6-(sulfoxy)-monosodium salt]",4,exhibited the activities,exhibited the activities
"NC(=O)[C@H]1CC[C@H]2CN1C(=O)N2OS(=O)(=O)O [Example 24, (2R,5S)-1,6-Diazabicyclo[3.2.1]octane-2-carboxamide, 7-oxo-6-(sulfoxy)-monosodium salt]",64,exhibited no activity,exhibited no activity
"C[C@]1(Cn2ccnn2)[C@H](C(=O)O)N2C(=O)C[C@H]2S1(=O)=O [TAZ, Tazobactam, reference compound]",64,,
